Calls of active or inactive are those of the source. The calls are words filed in the database; no cut-off is given here.
What was measured:
HepG2 [1] = assay: Growth inhibition of human HepG2 cells after 24 hrs by MTT assay; type: functional, cell-based; details: HepG2, 24 h
MCF7 = assay: Growth inhibition of human MCF7 cells after 24 hrs by MTT assay; type: functional, cell-based; details: MCF7, 24 h
HepG2 [2] = assay: Induction of apoptosis in human HepG2 cells at 0.16 uM after 24 hrs by Annexin-V/propidium iodide staining-based flow cytometric analysis; type: functional
HepG2 [3] = assay: Induction of apoptosis in human HepG2 cells at 0.33 uM after 24 hrs by Annexin-V/propidium iodide staining-based flow cytometric analysis; type: functional
HepG2 [4] = assay: Induction of apoptosis in human HepG2 cells assessed as early apoptotic cells at 0.33 uM after 24 hrs by Annexin-V/propidium iodide staining-based flow cytometric analysis; type: functional
HepG2 [5] = assay: Induction of NO generation in human HepG2 cells assessed as nitrite levels at 0.66 uM after 1 hr by Griess assay (reference value: 12.9 +/- 1.5 uM); type: functional
HepG2 [6] = assay: Induction of NO generation in human HepG2 cells assessed as nitrite levels at 0.33 uM after 1 hr by Griess assay (reference value: 12.9 +/- 1.5 uM); type: functional
HepG2 [7] = assay: Induction of NO generation in human HepG2 cells assessed as nitrite levels at 0.16 uM after 3 hrs by Griess assay (reference value: 12.8 +/- 1.5 uM); type: functional
HepG2 [8] = assay: Induction of NO generation in human HepG2 cells assessed as nitrite levels at 0.16 uM after 6 hrs by Griess assay (reference value: 12.6 +/- 1.1 uM); type: functional
HepG2 [9] = assay: Induction of NO generation in human HepG2 cells assessed as nitrite levels at 0.16 uM after 48 hrs by Griess assay (reference value: 12.8 +/- 1.7 uM); type: functional
HepG2 [10] = assay: Induction of NO generation in human HepG2 cells assessed as nitrite levels at 0.66 uM after 60 hrs by Griess assay (reference value: 12.8 +/- 1.5 uM); type: functional
L02 [11] = assay: Induction of NO generation in human HL-7702 cells assessed as nitrite levels at 0.66 uM after 6 hrs by Griess assay (reference value: 11.8 +/- 1.1 uM); type: functional
L02 [12] = assay: Induction of NO generation in human HL-7702 cells assessed as nitrite levels at 0.66 uM after 12 hrs by Griess assay (reference value: 11.8 +/- 1.2 uM); type: functional
HepG2 [13] = assay: Growth inhibition of human HepG2 cells pre-incubated with NO scavenger carboxy-PTIO for 1 hr followed by 0.66 uM compound treatment for 24 hrs by MTT assay; type: functional, cell-based
HepG2 [14] = assay: Induction of apoptosis in human HepG2 cells assessed as inhibition of p53-MDM2 interaction by measuring downregulation of MDM2 expression at 1 uM after 24 hrs by Western blot analysis; type: functional, cell-based
HepG2 [15] = assay: Induction of apoptosis in human HepG2 cells assessed as inhibition of p53-MDM2 interaction by measuring p53/MDM2 ratio at 1 uM after 24 hrs by Western blot analysis (reference value: 0.48); type: functional

In the case of `COc1cccc2oc3cc(OCCCCCO[N+](=O)[O-])cc(O)c3c(=O)c12`, the IC50 (HepG2 [1]) is reported as 0.33 µM, the IC50 (MCF7) is reported as 33.1 µM and the Activity (HepG2 [2]) is reported as 4.6%. For the same compound, the Activity (HepG2 [3]) was 76.6%, the Activity (HepG2 [4]) was 64.8% and the Activity (HepG2 [5]) was 21.6 µM. The Activity (HepG2 [6]) was 19.3 µM, the Activity (HepG2 [7]) was 18.8 µM and the Activity (HepG2 [8]) was 22.9 µM. The Activity (HepG2 [9]) was 21.3 µM, the Activity (HepG2 [10]) was 20.2 µM and the Activity (L02 [11]) was 17.1 µM. For the same compound, the Activity (L02 [12]) was 19.3 µM, the “growth inhibition (GI)” value (HepG2 [13]) was “inactive” and the Activity (HepG2 [14]) was “Active”. It also gave a Ratio (HepG2 [15]) of 6.46.

Reference: ChEMBL document CHEMBL4152189, “Incorporation of nitric oxide donor into 1,3-dioxyxanthones leads to synergistic anticancer activity” (Eur J Med Chem, 2018)
